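Where inhibition never reached the appropriate level, the endpoint shown equals the highest concentration tested. Otherwise, values were interpolated linearly from a five-concentration, 48-hour dose response in 96-well plates. Here, GI50 denotes the concentration required for 50% inhibition of growth. TGI: concentration producing complete growth inhibition.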
What was measured:
Assay in all cases: growth of human tumour cells (NCI), 48 h
A498 renal = system: A498 renal
A549 NSCLC = system: A549 NSCLC
ACHN renal = system: ACHN renal
BT-549 breast = system: BT-549 breast
CAKI-1 renal = system: CAKI-1 renal
COLO 205 colon = system: COLO 205 colon
DU-145 prostate = system: DU-145 prostate
EKVX NSCLC = system: EKVX NSCLC
HCT-116 colon = system: HCT-116 colon
HCT-15 colon = system: HCT-15 colon
HOP-92 NSCLC = system: HOP-92 NSCLC
HS 578T breast = system: HS 578T breast
HT29 colon = system: HT29 colon
IGROV1 ovarian = system: IGROV1 ovarian
KM12 colon = system: KM12 colon
M14 melanoma = system: M14 melanoma
MDA-MB-435 = system: MDA-MB-435
MDA-N = system: MDA-N
NCI-H23 lung = system: NCI-H23 lung
NCI-H460 lung = system: NCI-H460 lung
NCI-H522 lung = system: NCI-H522 lung
OVCAR-3 ovarian = system: OVCAR-3 ovarian
OVCAR-4 ovarian = system: OVCAR-4 ovarian
OVCAR-5 ovarian = system: OVCAR-5 ovarian
OVCAR-8 ovarian = system: OVCAR-8 ovarian
PC-3 prostate = system: PC-3 prostate
RXF 393 renal = system: RXF 393 renal
SF-268 CNS = system: SF-268 CNS
SF-295 CNS = system: SF-295 CNS
SF-539 CNS = system: SF-539 CNS
SK-MEL-28 melanoma = system: SK-MEL-28 melanoma
SK-MEL-5 melanoma = system: SK-MEL-5 melanoma
SK-OV-3 ovarian = system: SK-OV-3 ovarian
SN12C renal = system: SN12C renal
SNB-19 CNS = system: SNB-19 CNS
SNB-75 CNS = system: SNB-75 CNS
SW-620 colon = system: SW-620 colon
TK-10 renal = system: TK-10 renal
U251 CNS = system: U251 CNS
UACC-257 melanoma = system: UACC-257 melanoma
UACC-62 melanoma = system: UACC-62 melanoma
UO-31 renal = system: UO-31 renal
786-0 renal = system: 786-0 renal
CCRF-CEM leukemia = system: CCRF-CEM leukemia
HCC-2998 colon = system: HCC-2998 colon
HL-60(TB) leukemia = system: HL-60(TB) leukemia
HOP-62 NSCLC = system: HOP-62 NSCLC
K-562 leukemia = system: K-562 leukemia
LOX IMVI melanoma = system: LOX IMVI melanoma
MALME-3M melanoma = system: MALME-3M melanoma
MCF7 breast = system: MCF7 breast
MDA-MB-231 breast = system: MDA-MB-231 breast
MOLT-4 leukemia = system: MOLT-4 leukemia
NCI-H226 lung = system: NCI-H226 lung
NCI/ADR-RES ovarian = system: NCI/ADR-RES ovarian
RPMI-8226 leukemia = system: RPMI-8226 leukemia
SK-MEL-2 melanoma = system: SK-MEL-2 melanoma
SR leukemia = system: SR leukemia
T-47D breast = system: T-47D breast

## CCn1nc(C)c2c1C(=O)NCC(=O)N2
A498 renal
  TGI: > 100 µM
A549 NSCLC
  TGI: > 100 µM
ACHN renal
  TGI: > 100 µM
BT-549 breast
  TGI: > 100 µM
CAKI-1 renal
  TGI: > 100 µM
COLO 205 colon
  TGI: > 100 µM
DU-145 prostate
  TGI: > 100 µM
EKVX NSCLC
  TGI: > 100 µM
HCT-116 colon
  TGI: > 100 µM
HCT-15 colon
  TGI: > 100 µM
HOP-92 NSCLC
  TGI: > 100 µM
HS 578T breast
  TGI: > 100 µM
HT29 colon
  TGI: > 100 µM
IGROV1 ovarian
  TGI: > 100 µM
KM12 colon
  TGI: > 100 µM
M14 melanoma
  TGI: > 100 µM
MDA-MB-435
  TGI: > 100 µM
MDA-N
  TGI: > 100 µM
NCI-H23 lung
  TGI: > 100 µM
NCI-H460 lung
  TGI: > 100 µM
NCI-H522 lung
  TGI: > 100 µM
OVCAR-3 ovarian
  TGI: > 100 µM
OVCAR-4 ovarian
  TGI: > 100 µM
OVCAR-5 ovarian
  TGI: > 100 µM
OVCAR-8 ovarian
  TGI: > 100 µM
PC-3 prostate
  TGI: > 100 µM
RXF 393 renal
  TGI: > 100 µM
SF-268 CNS
  TGI: > 100 µM
SF-295 CNS
  TGI: > 100 µM
SF-539 CNS
  TGI: > 100 µM
SK-MEL-28 melanoma
  TGI: > 100 µM
SK-MEL-5 melanoma
  TGI: > 100 µM
SK-OV-3 ovarian
  TGI: > 100 µM
SN12C renal
  TGI: > 100 µM
SNB-19 CNS
  TGI: > 100 µM
SNB-75 CNS
  TGI: > 100 µM
SW-620 colon
  TGI: > 100 µM
TK-10 renal
  TGI: > 100 µM
U251 CNS
  TGI: > 100 µM
UACC-257 melanoma
  TGI: > 100 µM
UACC-62 melanoma
  TGI: > 100 µM
UO-31 renal
  TGI: > 100 µM

## c1ccc(-c2nc(-c3ccccn3)nc(-c3ccccn3)n2)nc1
786-0 renal
  GI50: 61.5 µM
  TGI: > 100 µM
A498 renal
  GI50: 86.9 µM
  TGI: > 100 µM
A549 NSCLC
  GI50: 47.9 µM
  TGI: > 100 µM
ACHN renal
  GI50: 22.1 µM
  TGI: > 100 µM
BT-549 breast
  GI50: 44.6 µM
  TGI: > 100 µM
CAKI-1 renal
  GI50: 3.88 µM
  TGI: 34.3 µM
CCRF-CEM leukemia
  GI50: 14.4 µM
  TGI: > 100 µM
COLO 205 colon
  GI50: 45.7 µM
  TGI: > 100 µM
DU-145 prostate
  GI50: 48.9 µM
  TGI: > 100 µM
EKVX NSCLC
  GI50: 17 µM
  TGI: > 100 µM
HCC-2998 colon
  GI50: 75.5 µM
  TGI: > 100 µM
HCT-116 colon
  GI50: 19.4 µM
  TGI: 78.6 µM
HCT-15 colon
  GI50: 5.71 µM
  TGI: > 100 µM
HL-60(TB) leukemia
  GI50: 38.2 µM
  TGI: > 100 µM
HOP-62 NSCLC
  GI50: 30.4 µM
  TGI: > 100 µM
HOP-92 NSCLC
  GI50: 8.99 µM
  TGI: 92 µM
HS 578T breast
  GI50: 53.6 µM
  TGI: > 100 µM
HT29 colon
  GI50: 6.73 µM
  TGI: > 100 µM
IGROV1 ovarian
  GI50: 15.8 µM
  TGI: 55.2 µM
K-562 leukemia
  GI50: 19.4 µM
  TGI: > 100 µM
KM12 colon
  GI50: 32.4 µM
  TGI: > 100 µM
LOX IMVI melanoma
  GI50: 33.5 µM
  TGI: > 100 µM
M14 melanoma
  GI50: 31.4 µM
  TGI: > 100 µM
MALME-3M melanoma
  GI50: 35.3 µM
  TGI: > 100 µM
MCF7 breast
  GI50: 29.6 µM
  TGI: > 100 µM
MDA-MB-231 breast
  GI50: 32.6 µM
  TGI: > 100 µM
MDA-MB-435
  GI50: 41.3 µM
  TGI: > 100 µM
MOLT-4 leukemia
  GI50: 21.2 µM
  TGI: > 100 µM
NCI-H226 lung
  GI50: 44.9 µM
  TGI: > 100 µM
NCI-H23 lung
  GI50: 54.9 µM
  TGI: > 100 µM
NCI-H460 lung
  GI50: 12.1 µM
  TGI: > 100 µM
NCI-H522 lung
  GI50: 21.6 µM
  TGI: 81.8 µM
NCI/ADR-RES ovarian
  GI50: 6.37 µM
  TGI: > 100 µM
OVCAR-3 ovarian
  GI50: 25.4 µM
  TGI: > 100 µM
OVCAR-4 ovarian
  GI50: 18.6 µM
  TGI: > 100 µM
OVCAR-5 ovarian
  GI50: > 100 µM
  TGI: > 100 µM
OVCAR-8 ovarian
  GI50: 21.3 µM
  TGI: > 100 µM
PC-3 prostate
  GI50: 48.1 µM
  TGI: > 100 µM
RPMI-8226 leukemia
  GI50: 18.3 µM
  TGI: > 100 µM
RXF 393 renal
  GI50: > 100 µM
  TGI: > 100 µM
SF-268 CNS
  GI50: 32.4 µM
  TGI: > 100 µM
SF-295 CNS
  GI50: 21.2 µM
  TGI: > 100 µM
SF-539 CNS
  GI50: 40.3 µM
  TGI: > 100 µM
SK-MEL-2 melanoma
  GI50: 63.3 µM
  TGI: > 100 µM
SK-MEL-28 melanoma
  GI50: 71 µM
  TGI: > 100 µM
SK-MEL-5 melanoma
  GI50: 17.2 µM
  TGI: 47.1 µM
SK-OV-3 ovarian
  GI50: 54.2 µM
  TGI: > 100 µM
SN12C renal
  GI50: 56.6 µM
  TGI: > 100 µM
SNB-19 CNS
  GI50: > 100 µM
  TGI: > 100 µM
SNB-75 CNS
  GI50: > 100 µM
  TGI: > 100 µM
SR leukemia
  GI50: 37.9 µM
  TGI: > 100 µM
SW-620 colon
  GI50: 28 µM
  TGI: > 100 µM
T-47D breast
  GI50: 7.85 µM
  TGI: > 100 µM
TK-10 renal
  GI50: 45.5 µM
  TGI: > 100 µM
U251 CNS
  GI50: 48.6 µM
  TGI: > 100 µM
UACC-257 melanoma
  GI50: 39.9 µM
  TGI: > 100 µM
UACC-62 melanoma
  GI50: 28 µM
  TGI: > 100 µM
UO-31 renal
  GI50: 3.18 µM
  TGI: > 100 µM

— PubChem BioAssay (NCI)
